# In USRE39198E1, “Heteroarylpiperidines, pyrrolidines and piperazines and their use as antipsychotics and analgesics” (Aventis Pharmaceuticals Inc., priority 1989, dated 2006):
# Tests used:
# mice = experiment: Phenyl p-quinone writhing assay in mice; assay type: in vivo; conditions: dose effecting approximately 50% inhibition of writhing in mice
# Source text: Some of the compounds of the present invention are also useful as analgetics due so their ability to alleviate pain in mammals. […] Exptl. Biol. Med., 95:729 (1937). Thus, for instance the subcutaneous dose effecting an approximately 50% inhibition of writhing (ED50) in mice produced in this assay is as shown in Table 2.
# CK-1 male mice = experiment: Climbing mouse assay (apomorphine-induced climbing); assay type: in vivo; conditions: apomorphine 1.5 mg/kg sc challenge, climbing score vs control group set to 100%, linear regression
# Description: Antipsychotic activity is determined in the climbing mice assay by a method similar to those described by P. Protais, et al., Psychopharmacol., 50:1 (1976) and B. Costall, Eur. J. Pharmacol., 50:39 (1978).
# Subject […] male mice (23-27 grams) are group-housed under standard laboratory conditions. The mice are individually placed in wire mesh stick cages (4″×10″) and are allowed one hour for adaption and exploration of the new environment. Then apomorphine is injected subcutaneously at 1.5 mg/kg a dose causing climbing in all subjects for 30 minutes.
# For evaluation of climbing, 3 readings are taken at 10. 20, and 30 minutes after apomorphine administration according to the following scale:
# Mice consistently climbing before the injection of apomorphine are discarded.
# With full-developed apomorphine climbing, the animals are hanging on to the cage walls, rather motionless, over long periods of time. By contrast, climbs due to mere motor stimulation usually only last a few seconds.
# The climbing scores are individually totaled (maximal score: 6 per mouse over 3readings) and the total score of the control group (vehicle intraperitoneally-apomorphine subcutaneously) is set to 100%.
Compound,"INHIBITION OF PHENYLQUINONE INDUCED WRITHING ED50 mg/kg, sc (mice) [mg/kg]","CLIMBING MOUSE ASSAY (ED50 mg/kg, ip) (CK-1 male mice) [mg/kg]"
"COc1cc(C(C)=O)ccc1OCCCN1CCC(c2noc3cc(F)ccc23)CC1 [1-[4-[3-[4-(6-Fluoro-1,2-benzisoxazol-3-yl)-1-piperadinyl]propoxy]-3-methoxyphenyl]ethanone]",0.03,0.095
"COc1cc(C(C)=O)ccc1OCCCN1CCC(c2noc3ccccc23)CC1 [1-[4-[3-[4-(1,2-Benzisoxazol-3-yl)-1-piperadinyl]propoxyl]-3-methoxyphenyl]ethanone]",0.17,0.67
